What all share (type): cell-based
The subject of assay [1] is E. coli ΔtolC. The assay can be described thus: microbe, parasite or virus in culture. The following applies: Escherichia coli, 16 h. As for the experimental part:
(§1) Cystobactamid derivatives synthesized were tested against relevant Gram negative and positive bacteria of clinical interest. Experimental procedures used for the biological characterization of the compounds are the same as previously described in WO 2016/082934.
(§2) Bacterial strains used in susceptibility assays (minimum inhibitory concentration, MIC) were either part of our internal strain collection or purchased from the German Collection of Microorganisms and Cell Cultures (Deutsche Sammlung von Mikroorganismen und Zellkulturen, DSMZ) and the American Type Culture Collection (ATCC). The susceptible E. coli strain (WT) and fluoroquinolone-resistant mutants E. coli WT-3 and WT-III were kindly provided by Prof Dr. P. Heisig, Pharmaceutical Biology and Microbiology, University of Hamburg, Germany. The efflux-deficient strain P. aeruginosa ΔmexAB was kindly provided by Prof Dr. S. Häußler, Institute for Molecular Bacteriology, TWINCORE, Hannover, Germany. All compounds were prepared as DMSO stocks and MIC values were determined in standard microbroth dilution assays in 96-well MTPs as described in Baumann et al., Angew Chem Int Ed Engl. 2014; 53(52):14605-9. In brief, overnight cultures of bacteria were diluted in either tryptic soy broth (TSB: 1.7% peptone casein, 0.3% peptone soymeal, 0.25% glucose, 0.5% NaCl, 0.25% K2HPO4; pH 7.3; S. pneumoniae and E. faecalis) or cation-adjusted Müller-Hinton Broth (BBL™, BD; all other bacteria) and adjusted to 10^4-10^6 cfu/mL. Bacteria were grown in the presence of the derivatives in serial dilution for approx. 16 h at 30-37° C. MIC values were determined and were defined as the antibiotic concentration at which no visual growth of bacteria was observed.

For assay [2], the system named is P. aeruginosa ΔmexAB. Kind of assay: microbe, parasite or virus in culture. The conditions noted are these: Pseudomonas aeruginosa, 16 h. As for the experimental part: as §1, §2
In assay [3] the test system is E. coli WT DSM-1116. Kind of assay: MIC, microbroth dilution susceptibility assay. The conditions noted are these: Escherichia coli, read-out: MIC E. coli WT DSM-1116. As for the experimental part: as §1, §2
For assay [4], the system named is P. aeruginosa WT PA14. Kind of assay: MIC, microbroth dilution susceptibility assay. The following applies: Pseudomonas aeruginosa. How it is done: as §1, §2
The test system of assay [5] is S. aureus Newman. Kind of assay: MIC, microbroth dilution susceptibility assay. The conditions noted are these: Staphylococcus aureus, NEWMAN, read-out: MIC S. aureus Newman. As for the experimental part:
as §1, §2
On the technique in general: Dilution methods test growth across graded concentrations, often in twofold steps.

[6] abbreviates: read-out: MIC E. coli ΔtolC, small panel, Tables 1a/1b, no visual growth after approx. 16 h.
[7] abbreviates: read-out: MIC P. aeruginosa ΔmexAB, efflux-deficient strain, small panel, Tables 1a/1b.
The mark [8] stands for this setting: DSM1116, small panel, Tables 1a/1b, no visual growth after approx. 16 h.
The mark [9] stands for this setting: PA14, small panel, Tables 1a/1b, read-out: MIC P. aeruginosa WT PA14.

In brackets after ≈: the same amount, converted by molar mass. Read-outs that look alike come from different tables or passages of the source.

As for `CC(C)Oc1c(NC(=O)c2ccc(NC(=O)[C@H](CC(N)=O)NC(=O)c3ccc(NC(=O)c4ccccc4)cc3)cc2)ccc(C(=O)Nc2ccc(C(=O)O)cc2)c1O` [Compound 38, (S)-4-(4-(4-(4-amino-2-(4-benzamidobenzamido)-4-oxobutanamido)benzamido)-2-hydroxy-3-isopropoxybenzamido)benzoic acid], the MIC in assay [1] (read-out: MIC E. coli ΔtolC) is 0.5 µg/mL (≈ 0.635 µM); in assay [2] (read-out: MIC P. aeruginosa ΔmexAB), 2 µg/mL (≈ 2.54 µM); in assay [3] (DSM1116, 16 h), greater than 64 µg/mL; in assay [4] (PA14, read-out: MIC P. aeruginosa WT PA14), greater than 64 µg/mL; in assay [5], greater than 64 µg/mL.
Take `CC(C)Oc1c(NC(=O)c2ccc(NC(=O)[C@H](CC(N)=O)NC(=O)c3ccc(NC(=O)c4ccc(C(F)(F)F)cc4)cc3)cc2)ccc(C(=O)Nc2ccc(C(=O)O)cc2)c1O` [Compound 45, (S)-4-(4-(4-(4-amino-4-oxo-2-(4-(4-(trifluoromethyl)benzamido)benzamido)butanamido)benzamido)-2-hydroxy-3-isopropoxybenzamido)benzoic acid]: the MIC in assay [1] (setting [6]) is no more than 0.03 µg/mL; in assay [2] (setting [7]) it was greater than 64 µg/mL; in assay [3] (setting [8]), 0.5 µg/mL (≈ 0.585 µM); in assay [4] (setting [9]), greater than 64 µg/mL; in assay [5] (small panel, Tables 1a/1b), 16 to 32 µg/mL (≈ 18.7 to 37.4 µM).
For the compound `CO[C@@H](C(N)=O)[C@H](NC(=O)c1ccc(NC(=O)/C(C)=C/c2ccc(C#N)cc2)cc1)C(=O)Nc1ccc(C(=O)Nc2ccc(C(=O)Nc3ccc(C(=O)O)cc3)c(O)c2OC(C)C)cc1` [Compound 123, 4-(4-(4-((2S,3R)-4-amino-2-(4-((E)-3-(4-cyanophenyl)-2-methylacrylamido)benzamido)-3-methoxy-4-oxobutanamido)benzamido)-2-hydroxy-3-isopropoxybenzamido)benzoic acid], the MIC in assay [1] (setting [6]) is 0.5 µg/mL (≈ 0.567 µM); in assay [2] (setting [7]), 2 µg/mL (≈ 2.27 µM); in assay [3] (setting [8]), 1 µg/mL (≈ 1.13 µM); in assay [4] (setting [9]), 8 µg/mL (≈ 9.07 µM); in assay [5] (small panel, Tables 1a/1b) it was 4 µg/mL (≈ 4.54 µM).
Take `CC(C)Oc1c(NC(=O)c2ccc(NC(=O)[C@H](CC(N)=O)NC(=O)c3ccc(NC(=O)c4ccc(NC(=O)c5ccc([N+](=O)[O-])cc5)cc4)cc3)cc2)ccc(C(=O)Nc2ccc(C(=O)O)cc2)c1O` [Compound 47, (S)-4-(4-(4-(4-amino-2-(4-(4-(4-nitrobenzamido)benzamido)benzamido)-4-oxobutanamido)benzamido)-2-hydroxy-3-isopropoxybenzamido)benzoic acid]: the MIC in assay [1] (setting [6]) was greater than 64 µg/mL; in assay [2] (setting [7]) it was greater than 64 µg/mL; in assay [3] (setting [8]) it was 2 µg/mL (≈ 2.1 µM); in assay [4] (setting [9]), greater than 64 µg/mL; in assay [5] (small panel, Tables 1a/1b), greater than 64 µg/mL.
As to `CC(C)Oc1c(NC(=O)c2ccc(NC(=O)[C@H](CC(N)=O)NC(=O)c3ccc(NC(=O)c4cccc([N+](=O)[O-])c4)cc3)cc2)ccc(C(=O)Nc2ccc(C(=O)O)cc2)c1O` [Compound 41, (S)-4-(4-(4-(4-amino-2-(4-(3-nitrobenzamido)benzamido)-4-oxobutanamido)benzamido)-2-hydroxy-3-isopropoxybenzamido)benzoic acid], the MIC is 0.25 µg/mL (≈ 0.301 µM) in assay [1] (setting [6]); 0.5 µg/mL (≈ 0.601 µM) in assay [2] (setting [7]); greater than 64 µg/mL in assay [3] (setting [8]); greater than 64 µg/mL in assay [4] (setting [9]); greater than 64 µg/mL in assay [5] (small panel, Tables 1a/1b).
On to `CC(C)Oc1c(NC(=O)c2ccc(NC(=O)[C@H](CC(N)=O)NC(=O)c3ccc(NC(=O)c4ccc([N+](=O)[O-])cc4)cc3)cc2)ccc(C(=O)Nc2ccc(C(N)=O)cc2)c1O` [Compound 78, (S)—N1-(4-((4-((4-carbamoylphenyl)carbamoyl)-3-hydroxy-2-isopropoxyphenyl)carbamoyl)phenyl)-2-(4-(4-nitrobenzamido)benzamido)succinamide], for which the MIC in assay [1] (setting [6]) was no more than 0.03 µg/mL; in assay [2] (setting [7]), greater than 64 µg/mL; in assay [3] (setting [8]) it was 32 µg/mL (≈ 38.5 µM); in assay [4] (setting [9]), greater than 64 µg/mL; in assay [5] (small panel, Tables 1a/1b) it was 64 µg/mL (≈ 77 µM).
For `CC(C)Oc1c(NC(=O)c2ccc(NC(=O)[C@H](CC(N)=O)NC(=O)c3ccc(NC(=O)c4ccc(C#N)cc4)cc3)cc2)ccc(C(=O)Nc2ccn(C)c2)c1O` [Compound 87, (S)-2-(4-(4-cyanobenzamido)benzamido)-N1-(4-((3-hydroxy-2-isopropoxy-4-((1-methyl-1H-pyrrol-3-yl)carbamoyl)phenyl)carbamoyl)phenyl)succinamide], the MIC in assay [1] (setting [6]) is less than 0.03 µg/mL; in assay [2] (setting [7]), greater than 64 µg/mL; in assay [3] (setting [8]), greater than 64 µg/mL; in assay [4] (setting [9]), greater than 64 µg/mL; in assay [5] (small panel, Tables 1a/1b), greater than 64 µg/mL.
For `CC(C)Oc1c(NC(=O)c2ccc(NC(=O)[C@H](CC(N)=O)NC(=O)c3ccc(NC(=O)c4ccc(C#N)cc4)cc3)cc2)ccc(C(=O)Nc2ccncc2)c1O` [Compound 94, (S)-2-(4-(4-cyanobenzamido)benzamido)-N1-(4-((3-hydroxy-2-isopropoxy-4-(pyridin-4-ylcarbamoyl)phenyl)carbamoyl)phenyl)succinamide], the MIC is 0.03 µg/mL (≈ 0.039 µM) in assay [1] (setting [6]); greater than 64 µg/mL in assay [2] (setting [7]); greater than 64 µg/mL in assay [3] (setting [8]); greater than 64 µg/mL in assay [4] (setting [9]); greater than 64 µg/mL in assay [5] (small panel, Tables 1a/1b).
In the case of `CC(C)Oc1c(NC(=O)c2ccc(NC(=O)[C@H](CC(N)=O)NC(=O)c3ccc(NC(=O)c4cccc(N)c4)cc3)cc2)ccc(C(=O)Nc2ccc(C(=O)O)cc2)c1O` [Compound 42, (S)-4-(4-(4-(4-amino-2-(4-(3-aminobenzamido)benzamido)-4-oxobutanamido)benzamido)-2-hydroxy-3-isopropoxybenzamido)benzoic acid], the MIC in assay [1] (setting [6]) was 2 µg/mL (≈ 2.49 µM); in assay [2] (setting [7]), 4 µg/mL (≈ 4.99 µM); in assay [3] (setting [8]) it was 32 µg/mL (≈ 39.9 µM); in assay [4] (setting [9]) it was greater than 64 µg/mL; in assay [5] (small panel, Tables 1a/1b), greater than 64 µg/mL.
As to `CC(C)Oc1c(NC(=O)c2ccc(NC(=O)[C@H](CC(N)=O)NC(=O)c3ccc(NC(=O)c4ccc(C#N)cc4)cc3)cc2)ccc(C(=O)NCc2ccc(C(=O)O)cc2)c1O` [Compound 89, (S)-4-((4-(4-(4-amino-2-(4-(4-cyanobenzamido)benzamido)-4-oxobutanamido)benzamido)-2-hydroxy-3-isopropoxybenzamido)methyl)benzoic acid], the MIC in assay [1] (setting [6]) is 0.25 µg/mL (≈ 0.303 µM); in assay [2] (setting [7]), greater than 64 µg/mL; in assay [3] (setting [8]), greater than 64 µg/mL; in assay [4] (setting [9]), greater than 64 µg/mL; in assay [5] (small panel, Tables 1a/1b), greater than 64 µg/mL.
`CC(C)COc1c(NC(=O)c2ccc(NC(=O)[C@H](CC(N)=O)NC(=O)c3ccc(NC(=O)c4ccc(C#N)cc4)cc3)cc2)ccc(C(=O)Nc2ccc(C(=O)O)cc2)c1O` [Compound 126, (S)-4-(4-(4-(4-amino-2-(4-(4-cyanobenzamido)benzamido)-4-oxobutanamido)benzamido)-2-hydroxy-3-isobutoxybenzamido)benzoic acid]: the MIC in assay [1] (setting [6]) is less than 0.03 µg/mL; in assay [2] (setting [7]), greater than 64 µg/mL; in assay [3] (setting [8]), 0.25 µg/mL (≈ 0.303 µM); in assay [4] (setting [9]), greater than 64 µg/mL; in assay [5] (small panel, Tables 1a/1b) it was 0.25 µg/mL (≈ 0.303 µM).
Turning to `CC(C)Oc1c(NC(=O)c2ccc(NC(=O)[C@H](CC(N)=O)NC(=O)c3ccc(NC(=O)c4ccc(C#N)cc4)cc3)cc2)ccc(C(=O)NC2CCNCC2)c1O` [Compound 91, (S)-2-(4-(4-cyanobenzamido)benzamido)-N1-(4-((3-hydroxy-2-isopropoxy-4-(piperidin-4-ylcarbamoyl)phenyl)carbamoyl)phenyl)succinamide], the MIC in assay [1] (setting [6]) was greater than 64 µg/mL; in assay [2] (setting [7]), greater than 64 µg/mL; in assay [3] (setting [8]), greater than 64 µg/mL; in assay [4] (setting [9]), greater than 64 µg/mL; in assay [5] (small panel, Tables 1a/1b), greater than 64 µg/mL.
Regarding `CC(C)Oc1c(NC(=O)c2ccc(NC(=O)[C@H](CC(N)=O)NC(=O)c3ccc(NC(=O)c4ccc(C#N)cc4)cc3)cc2)ccc(C(=O)Nc2ccc(S(=O)(=O)O)cc2)c1O` [Compound 92, (S)-4-(4-(4-(4-amino-2-(4-(4-cyanobenzamido)benzamido)-4-oxobutanamido)benzamido)-2-hydroxy-3-isopropoxybenzamido)benzenesulfonic acid], the MIC in assay [1] (setting [6]) is 0.25 µg/mL (≈ 0.295 µM); in assay [2] (setting [7]), greater than 64 µg/mL; in assay [3] (setting [8]) it was greater than 64 µg/mL; in assay [4] (setting [9]), greater than 64 µg/mL; in assay [5] (small panel, Tables 1a/1b), greater than 64 µg/mL.
With `CC(C)Oc1c(NC(=O)c2ccc(NC(=O)[C@H](CC(N)=O)NC(=O)c3ccc(NC(=O)c4ccncc4)cc3)cc2)ccc(C(=O)Nc2ccc(C(=O)O)cc2)c1O` [Compound 55, (S)-4-(4-(4-(4-amino-2-(4-(isonicotinamido)benzamido)-4-oxobutanamido)benzamido)-2-hydroxy-3-isopropoxybenzamido)benzoic acid], the MIC in assay [1] (setting [6]) is less than 0.03 µg/mL; in assay [2] (setting [7]), 2 µg/mL (≈ 2.54 µM); in assay [3] (setting [8]) it was 1 µg/mL (≈ 1.27 µM); in assay [4] (setting [9]) it was greater than 64 µg/mL; in assay [5] (small panel, Tables 1a/1b), greater than 64 µg/mL.

The record behind these values is patent US11034648B2, “Cystobactamide derivatives” (priority 2017, dated 2021).
